Reference: patent US7569547B2, “Inhibiting furin with polybasic peptides” (Board of Supervisors of Louisiana State University and …, priority 2001, dated 2009)
Like-named read-outs stand apart in the source and are kept apart here.

Assays:
PACE4 = target: T1, PACE4 (Rattus norvegicus, UniProt Q63415); experiment: PACE4 enzyme assay, hydrolysis of pERTKR-MCA; type: biochemical
T1 construct: made in house; host or cells: stably transfected hEK-293 cells (gift of R. E. Mains), conditioned medium
T1 sequence (Q63415 133-937): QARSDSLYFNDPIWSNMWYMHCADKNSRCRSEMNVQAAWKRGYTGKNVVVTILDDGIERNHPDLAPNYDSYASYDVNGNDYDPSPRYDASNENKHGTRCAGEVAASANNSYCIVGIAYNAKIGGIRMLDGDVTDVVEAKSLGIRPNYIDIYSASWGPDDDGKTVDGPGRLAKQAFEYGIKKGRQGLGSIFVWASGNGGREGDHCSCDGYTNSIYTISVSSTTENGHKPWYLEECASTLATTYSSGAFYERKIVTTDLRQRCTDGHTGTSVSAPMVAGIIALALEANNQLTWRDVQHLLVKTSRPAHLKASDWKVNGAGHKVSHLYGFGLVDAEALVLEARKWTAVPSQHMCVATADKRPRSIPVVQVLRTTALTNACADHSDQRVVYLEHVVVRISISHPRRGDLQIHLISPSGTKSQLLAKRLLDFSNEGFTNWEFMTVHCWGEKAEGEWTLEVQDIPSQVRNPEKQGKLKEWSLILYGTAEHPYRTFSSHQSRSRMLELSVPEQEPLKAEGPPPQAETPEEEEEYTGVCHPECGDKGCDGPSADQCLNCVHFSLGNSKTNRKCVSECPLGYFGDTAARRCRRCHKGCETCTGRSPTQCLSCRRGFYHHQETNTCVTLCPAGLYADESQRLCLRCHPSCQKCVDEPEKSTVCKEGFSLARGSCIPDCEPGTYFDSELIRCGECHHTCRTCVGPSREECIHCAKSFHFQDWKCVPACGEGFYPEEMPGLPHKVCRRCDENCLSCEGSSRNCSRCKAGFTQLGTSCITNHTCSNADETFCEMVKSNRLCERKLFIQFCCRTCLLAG
Protocol: The proprotein convertase PACE4 was partially purified from an overnight-conditioned medium of stably transfected hEK-293 human embryonic kidney cells (a generous gift of R. E. Mains, Johns Hopkins University School of Medicine, Baltimore, Md.). Briefly, 100 mL of conditioned medium (OptiMEM containing 100 μg/mL aprotinin) was loaded onto an Econo-Pac Q (Bio-Rad) column at 4 mL/min, washed with 10 mL of buffer A, and then eluted with a linear gradient of buffer A containing 500 mM NaCl over 50 mL. The active fractions were then diluted 1:4 with buffer A prior to loading onto a Mono Q column (Pharmacia) at 1 mL/min. The PACE4 was eluted with a linear gradient of buffer A containing 500 mM NaCl over 10 mL. The resulting active fractions were then pooled and stored at −80° C. until use.
(§1) Enzyme Assays and Hexapeptide Library Screening. Enzyme assays for PC1 and PC2 were performed at pH 5.0 using pERTKR-MCA (Peptides International Inc., Louisville, Ky.) as described in E. Apletalina et al., J. Biol. Chem., vol. 273, pp. 26589-26595 (1998). The assay for furin was performed using the same substrate at pH 7.0 in 100 mM HEPES, 5 mM CaCl2, 0.1% Brij 35. All assays were performed at 37° C. in a 96 well fluorometer (Labsystems) at an excitation wavelength of 380 nm with emission monitored at a wavelength of 460 nm. The total volume was 50 μL. Unless otherwise stated, the final substrate concentration for all assays was 200 μM. When used in a particular experiment, the inhibitory peptides were pre-incubated with enzyme for 30 min at room temperature prior to addition of substrate. All assays were performed in duplicate or triplicate.

recombinant mouse furin = target: T2, recombinant mouse furin (Mus musculus, UniProt P23188); experiment: Furin enzyme assay, hydrolysis of pERTKR-MCA at pH 7.0; type: biochemical; settings: for type of inhibition of furin (Lineweaver-Burk plots): furin 30 nM, 0, 20 or 40 μM hexapeptide, polyarginines forty-fold lower
T2 construct: truncated N-terminally to the transmembrane domain at His^711 using PCR; myc (C, cleaved yes); hexa-His (C, cleaved yes); made in house; host or cells: DG44 CHO cells, conditioned medium
Text: Recombinant convertase preparation. The mouse furin clone was a kind gift from K. Nakayama (Fukuoka University School of Medicine, Fukuoka, Japan). The mouse furin cDNA was truncated N-terminally to the transmembrane domain at His^711 using PCR. This PCR product was then subcloned into pcDNA3.1 (−) myc-His (Invitrogen) at the Nhe1 and Xba1 restriction sites. Dihydrofolate-reductase-negative DG44 Chinese Hamster Ovary (CHO) cells (L. Chasin, Columbia University, New York, N.Y.) were transfected using Lipofectin (Life Technologies), and colonies were selected at 37° C. in 5% CO2 in α-MEM (lacking nucleosides) containing 10% well-dialyzed fetal bovine serum (Life Technologies). Conditioned media from colonies were screened using an enzyme assay (see below), and a high-expressing clone was selected. Overexpression of furin was achieved by increasing the methotrexate concentration from 5 nM to 50 μM in five- to ten-fold steps as described in I. Lindberg et al., Methods Neurosci., vol. 23, pp. 94-108 (1995). The amplified lines were tested for increased furin expression by enzyme assay. Once the 50 μM methotrexate level had been reached, cells were split at ratios of 1:6 twice a week. 100 mL of conditioned media (OptiMEM, Life Technologies) containing 100 μg/mL aprotinin (Miles Laboratories, Kankakee, Ill.) was collected from confluent roller bottles every 24 h. The medium was then centrifuged at low speed to remove cells, and the supernatant was stored at −80° C. until use.
Purification of furin: Conditioned medium was thawed, pooled, and diluted 1:3.5 with buffer A (20 mM HEPES, 0.1% Brij 35, 5 mM CaCl2, pH 7.4), and pumped at 40 mL/min through a Sartorius D100 anion exchange membrane. The membrane was washed with 40 mL of buffer A, followed by 40 mL of buffer A containing 50 mM NaCl, and finally by 40 mL of buffer A containing 200 mM NaCl. The fraction eluting with 200 mM NaCl was diluted 1:4 with buffer A and applied to a 1 mL Pharmacia Mono Q HR5/5 anion exchange column at a flow rate of 1 mL/min. Following a 10 mL wash with buffer A, furin was eluted by a linear increase of 0 to 500 mM NaCl in buffer A over 30 mL; and 2 mL fractions were collected. Fractions containing peak activity were pooled, and 200 μL aliquots were subjected to gel permeation chromatography using a Pharmacia Superose 12 column at a flow rate of 0.5 mL/min of buffer A containing 200 mM NaCl. Fractions were assayed for activity as described below; protein content was determined using the Bradford method. All purification steps were performed at 4° C.
as §1

T2 sequence (P23188 108-714 limits assumed): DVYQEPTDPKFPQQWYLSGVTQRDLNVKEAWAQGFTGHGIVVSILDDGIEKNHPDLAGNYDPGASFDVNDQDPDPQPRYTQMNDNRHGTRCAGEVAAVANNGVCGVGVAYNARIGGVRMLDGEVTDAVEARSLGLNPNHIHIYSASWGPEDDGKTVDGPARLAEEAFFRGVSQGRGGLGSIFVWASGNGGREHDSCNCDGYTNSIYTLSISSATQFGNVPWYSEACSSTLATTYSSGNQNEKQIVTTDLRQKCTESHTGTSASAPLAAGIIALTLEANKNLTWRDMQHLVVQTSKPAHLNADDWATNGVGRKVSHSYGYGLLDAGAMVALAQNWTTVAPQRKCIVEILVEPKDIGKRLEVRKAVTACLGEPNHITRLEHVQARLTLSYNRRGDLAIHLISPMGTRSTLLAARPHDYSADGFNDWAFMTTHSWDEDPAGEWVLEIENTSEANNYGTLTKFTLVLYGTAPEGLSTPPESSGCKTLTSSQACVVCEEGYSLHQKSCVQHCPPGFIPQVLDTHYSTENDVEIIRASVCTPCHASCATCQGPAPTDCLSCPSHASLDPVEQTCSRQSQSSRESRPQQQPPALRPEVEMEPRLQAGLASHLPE

SMILES | Ki (PACE4; polyarginine peptides, mean ± S.D., three experiments, read-out: Ki PACE4) | type of inhibition of furin (Lineweaver-Burk plots) (recombinant mouse furin) | Ki (PACE4) | Ki (recombinant mouse furin)
N=C(N)NCCC[C@@H](NC(=O)[C@H](N)CCCN=C(N)N)C(=O)N[C@H](CCCNC(=N)N)C(=O)N[C@H](CCCNC(=N)N)C(=O)N[C@H](CCCNC(=N)N)C(=O)N[C@H](CCCN=C(N)N)C(=O)O [Hexa-D-arginine] | 580 ± 40 nM | strictly competitive-type inhibition |  | 
N=C(N)NCCC[C@H](NC(=O)[C@H](CCCNC(=N)N)NC(=O)[C@H](CCCNC(=N)N)NC(=O)[C@H](CCCNC(=N)N)NC(=O)[C@H](CCCNC(=N)N)NC(=O)[C@@H](N)CCCNC(=N)N)C(=O)O [Hexa-L-arginine] |  | strictly competitive-type inhibition | 520 ± 45 nM | 
N=C(N)NCCC[C@H](NC(=O)[C@H](CCCNC(=N)N)NC(=O)[C@H](CCCNC(=N)N)NC(=O)[C@H](CCCNC(=N)N)NC(=O)[C@H](CCCNC(=N)N)NC(=O)[C@H](CCCNC(=N)N)NC(=O)[C@H](CCCNC(=N)N)NC(=O)[C@H](CCCNC(=N)N)NC(=O)[C@@H](N)CCCNC(=N)N)C(=O)O [Nona-L-arginine] |  | strictly competitive-type inhibition | 110 ± 13 nM | 42 nM
